Measured values as given in patent US10173991B2, “Sulfone amide linked benzothiazole inhibitors of endothelial lipase” (BRISTOL-MYERS SQUIBB COMPANY, priority 2014, dated 2019).

Target: Endothelial lipase (EL) (Homo sapiens (Human), UniProt Q9Y5X9)
Experiment: Endothelial lipase (EL) enzymatic assay with fluorescent substrate A10070 in DMPG vesicles
Assay type: biochemical
Method in brief: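 EL from conditioned medium of HT-1080 cells engineered to overexpress endogenous EL; HL partially purified from conditioned medium of HL-overexpressing COS cells. Enzyme preincubated with compound 30 min at 37° C in 50 mM HEPES pH 8.0, 50 mM NaCl, 1 mM CaCl2; DMPG vesicles carrying FRET substrate (0.11 mole fraction) then added.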

Sequence of Endothelial lipase (EL) (Q9Y5X9 21-500): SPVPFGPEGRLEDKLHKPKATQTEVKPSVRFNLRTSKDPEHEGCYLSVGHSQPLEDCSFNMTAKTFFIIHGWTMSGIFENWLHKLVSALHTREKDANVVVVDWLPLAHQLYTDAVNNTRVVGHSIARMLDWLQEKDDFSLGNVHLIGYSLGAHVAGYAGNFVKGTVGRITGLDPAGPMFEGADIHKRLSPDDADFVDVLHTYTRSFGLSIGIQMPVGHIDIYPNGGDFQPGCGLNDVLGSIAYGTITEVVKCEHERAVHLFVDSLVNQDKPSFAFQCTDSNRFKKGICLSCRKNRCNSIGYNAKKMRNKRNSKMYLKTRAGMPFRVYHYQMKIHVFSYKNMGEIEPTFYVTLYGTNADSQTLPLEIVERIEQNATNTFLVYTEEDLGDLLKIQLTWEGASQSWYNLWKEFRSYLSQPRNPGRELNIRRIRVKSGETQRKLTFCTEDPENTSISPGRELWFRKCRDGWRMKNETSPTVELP

Compound	IC50 [nM]
COCCS(=O)(=O)C(C(=O)NCC(=O)NC1CC1)c1nc2cc(F)c(-c3ccc(C)nc3)cc2s1 (centres unmarked) [Example 158, N-[(cyclopropyl-carbamoyl)methyl]-2-[5-fluoro-6-(6-methylpyridin-3-yl)-1,3-benzothiazol-2-yl]-2-(2-methoxyethane-sulfonyl) acetamide]	11
COCCS(=O)(=O)C(C(=O)NCC(=O)NC1CC1)c1nc2cc(F)c(-c3ccc(C4CC4)nc3)cc2s1 (centres unmarked) [Example 159, N-[(cyclopropyl-carbamoyl)methyl]-2-[6-(6-cyclopropyl-pyridin-3-yl)-5-fluoro-1,3-benzothiazol-2-yl]-2-(2-methoxyethane-sulfonyl) acetamide]	12
COCCS(=O)(=O)C(C(=O)NCC(=O)NC1CC1)c1nc2cc(F)c(-c3ccc(=O)n(C(C)C)c3)cc2s1 (centres unmarked) [Example 160, N-[(cyclopropyl-carbamoyl)methyl]-2-{5-fluoro-6-[6-oxo-1-(propan-2-yl)-1,6-dihydropyridin-3-yl]-1,3-benzothiazol-2-yl}-2-(2-methoxyethane-sulfonyl) acetamide]	12
COCCS(=O)(=O)C(C(=O)NCC(=O)NC1CC1)c1nc2cc(F)c(-c3ccc(C(=O)N4CCOCC4)cc3)cc2s1 (centres unmarked) [Example 161, N-[(cyclopropyl-carbamoyl)methyl]-2-{5-fluoro-6-[4-(morpholine-4-carbonyl)phenyl]-1,3-benzothiazol-2-yl}-2-(2-methoxyethane-sulfonyl) acetamide]	14
COCCS(=O)(=O)C(C(=O)NCC(=O)NC1CC1)c1nc2cc(C)c(-c3cnc(C4CC4)nc3)cc2s1 (centres unmarked) [Example 163, N-[(cyclopropyl-carbamoyl)methyl]-2-[6-(2-cyclopropyl-pyrimidin-5-yl)-5-methyl-1,3-benzothiazol-2-yl]-2-(2-methoxyethane-sulfonyl) acetamide]	16
COCCS(=O)(=O)C(C(=O)NCC(=O)NC1CC1)c1nc2cc(C(F)(F)F)c(-c3ccc(C(=O)N4CCOCC4)cc3)cc2s1 (centres unmarked) [Example 166, N-[(cyclopropyl-carbamoyl)methyl]-2-(2-methoxyethane-sulfonyl)-2-{6-[4-(morpholine-4-arbonyl)phenyl]-5-(trifluoromethyl)-1,3-benzothiazol-2-yl}acetamide]	20
CC(C)S(=O)(=O)C(C(=O)NCC(=O)NC1CC1)c1nc2cc(C(F)(F)F)c(-c3ccc(C(=O)N4CCOCC4)cc3)cc2s1 (centres unmarked) [Example 168, N-[(cyclopropyl-carbamoyl)methyl]-2-{6-[4-(morpholine-4-carbonyl)phenyl]-5-(trifluoromethyl)-1,3-benzothiazol-2-yl}-2-(propane-2-sulfonyl) acetamide]	24
CC(C)S(=O)(=O)C(C(=O)NCC(=O)NC1CC1)c1nc2cc(C(F)(F)F)c(-c3ccccc3)cc2s1 (centres unmarked) [Example 169, N-[(cyclopropyl-carbamoyl)methyl]-2-[6-phenyl-5-(trifluoromethyl)-1,3-benzothiazol-2-yl]-2-(propane-2-sulfonyl) acetamide]	26
CC(C)S(=O)(=O)C(C(=O)NCC(=O)NC1CC1)c1nc2cc(C(F)(F)F)c(-c3ccc(F)nc3)cc2s1 (centres unmarked) [Example 170, N-[(cyclopropyl-carbamoyl)methyl]-2-[6-(6-fluoropyridin-3-yl)-5-(trifluoromethyl)-1,3-benzothiazol-2-yl]-2-(propane-2-sulfonyl) acetamide]	27
COCCS(=O)(=O)C(C(=O)NCC(=O)NC1CC1)c1nc2cc(C)c(-c3ccn(C)c(=O)c3)cc2s1 (centres unmarked) [Example 172, N-[(cyclopropyl-carbamoyl)methyl]-2-(2-methoxyethane-sulfonyl)-2-[5-methyl-6-(1-methyl-2-oxo-1,2-dihydropyridin-4-yl)-1,3-benzothiazol-2-yl]acetamide]	27
COCCS(=O)(=O)C(C(=O)NCC(=O)NC1CC1)c1nc2cc(C)c(-c3cnc(C)nc3)cc2s1 (centres unmarked) [Example 174, N-[(cyclopropyl-carbamoyl)methyl]-2-(2-methoxyethane-sulfonyl)-2-[5-methyl-6-(2-methylpyrimidin-5-yl)-1,3-benzothiazol-2-yl]acetamide]	35
CC(C)S(=O)(=O)C(C(=O)NCC(=O)NC1CC1)c1nc2cc(C(F)(F)F)c(-c3cccc(C(=O)N(C)C)c3)cc2s1 (centres unmarked) [Example 175, 3-[2-({[(cyclopropyl-carbamoyl)methyl]carbamoyl} (propane-2-sulfonyl)methyl)-5-(trifluoromethyl)-1,3-benzothiazol-6-yl]-N,N-dimethyl-benzamide]	37
COCCS(=O)(=O)C(C(=O)NCC(=O)NC1CC1)c1nc2cc(F)c(-c3cccc(C(=O)N(C)C)c3)cc2s1 (centres unmarked) [Example 177, 3-[2-({[(cyclopropyl-carbamoyl)methyl]carbamoyl}(2-methoxyethane-sulfonyl)methyl)-5-fluoro-1,3-benzothiazol-6-yl]-N,N-dimethyl-benzamide]	51

Continued, values first:

IC50 [nM]	Compound
16	COCCS(=O)(=O)C(C(=O)NCC(=O)NC1CC1)c1nc2cc(C(F)(F)F)c(-c3ccnn3C)cc2s1 (centres unmarked) [Example 162, N-[(cyclopropyl-carbamoyl)methyl]-2-(2-methoxyethane-sulfonyl)-2-[6-(1-methyl-1H-pyrazol-5-yl)-5-(trifluoromethyl)-1,3-benzothiazol-2-yl]acetamide]
17	COCCS(=O)(=O)C(C(=O)NCC(=O)NC1CC1)c1nc2cc(C(F)(F)F)c(-c3ccc(C4CC4)nc3)cc2s1 (centres unmarked) [Example 164, N-[(cyclopropyl-carbamoyl)methyl]-2-[6-(6-cyclopropyl-pyridin-3-yl)-5-(trifluoromethyl)-1,3-benzothiazol-2-yl]-2-(2-methoxyethane-sulfonyl) acetamide]
18	COCCS(=O)(=O)C(C(=O)NCC(=O)NC1CC1)c1nc2cc(C(F)(F)F)c(Br)cc2s1 (centres unmarked) [Example 165, 2-[6-bromo-5-(trifluoromethyl)-1,3-benzothiazol-2-yl]-N-[(cyclopropyl-carbamoyl)methyl]-2-(2-methoxyethane-sulfonyl) acetamide]
23	COCCS(=O)(=O)C(C(=O)NCC(=O)NC1CC1)c1nc2cc(F)c(-c3ccnn3C)cc2s1 (centres unmarked) [Example 167, N-[(cyclopropyl-carbamoyl)methyl]-2-[5-fluoro-6-(1-methyl-1H-pyrazol-5-yl)-1,3-benzothiazol-2-yl]-2-(2-methoxyethane-sulfonyl) acetamide]
27	COCCS(=O)(=O)C(C(=O)NCC(=O)NC1CC1)c1nc2cc(F)c(-c3ccc(F)nc3)cc2s1 (centres unmarked) [Example 171, N-[(cyclopropyl-carbamoyl)methyl]-2-[5-fluoro-6-(6-fluoropyridin-3-yl)-1,3-benzothiazol-2-yl]-2-(2-methoxyethane-sulfonyl) acetamide]
32	COCCS(=O)(=O)C(C(=O)NCC(=O)NC1CC1)c1nc2cc(C(F)(F)F)c(-c3ccc(F)nc3)cc2s1 (centres unmarked) [Example 173, N-[(cyclopropyl-carbamoyl)methyl]-2-[6-(6-fluoropyridin-3-yl)-5-(trifluoromethyl)-1,3-benzothiazol-2-yl]-2-(2-methoxyethane-sulfonyl) acetamide]
37	COCCS(=O)(=O)C(C(=O)NCC(=O)NC1CC1)c1nc2cc(C(F)(F)F)c(-c3ccn(C)c(=O)c3)cc2s1 (centres unmarked) [Example 176, N-[(cyclopropyl-carbamoyl)methyl]-2-(2-methoxyethane-sulfonyl)-2-[6-(1-methyl-2-oxo-1,2-dihydropyridin-4-yl)-5-(trifluoromethyl)-1,3-benzothiazol-2-yl]acetamide]
